Where “and” joins values, the source holds several entries; their conditions need not be identical. Identical values can stand only once. Like-named read-outs stand apart in the source and are kept apart here.
What was measured:
CYP1A2 [1] = biological target: T1, CYP1A2 (Homo sapiens, UniProt P05177); settings: microsomes
T1 sequence (P05177 1-516): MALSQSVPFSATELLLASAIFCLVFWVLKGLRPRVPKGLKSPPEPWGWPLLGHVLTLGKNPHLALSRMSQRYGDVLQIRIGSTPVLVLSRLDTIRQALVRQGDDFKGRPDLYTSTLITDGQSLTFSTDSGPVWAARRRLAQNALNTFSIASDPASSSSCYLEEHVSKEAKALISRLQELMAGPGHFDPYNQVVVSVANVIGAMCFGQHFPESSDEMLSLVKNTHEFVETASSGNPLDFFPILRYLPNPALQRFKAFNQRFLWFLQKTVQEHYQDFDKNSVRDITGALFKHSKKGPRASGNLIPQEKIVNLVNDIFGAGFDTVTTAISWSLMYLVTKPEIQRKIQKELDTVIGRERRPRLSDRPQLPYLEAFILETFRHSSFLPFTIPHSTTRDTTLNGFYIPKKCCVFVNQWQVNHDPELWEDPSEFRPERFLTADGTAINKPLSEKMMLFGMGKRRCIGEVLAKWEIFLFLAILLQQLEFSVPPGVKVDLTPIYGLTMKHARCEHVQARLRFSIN
Method: (§1) The incubation conditions employed for each CYP450 isoform were performed, as previously described.
(§2) Buffer solution (0.1 mol/L aqueous phosphate buffer, pH 7.4, 69 µL), NADPH-regenerating solutions (10 µL solution A: 26 mmol/L NADP+, 66 mmol/L glucose-6-phosphate, and 66 mmol/L MgCl2; 2 µL solution B: 40 U/mL glucose-6-phosphate dehydrogenase in 5 mmol/L sodium citrate), and deionized water (69 µL) were added, in a total volume of 150 μL. The tubes were vortex-mixed and preincubated with continuous gentle shaking for 5 min at 37 °C in a shaking water bath. Reactions were initiated by the addition of 50 µL of HLM solution in the tubes which were gently mixed by hand and incubated with continuous gentle shaking at 37 °C. Aliquots of 200 µL ice-cold solvent (Table 1) containing IS (1 µg/mL) were added. […] The supernatants were transferred to glass autosampler vials and submitted to LC-MS/MS analysis (5 µL injection volume) to monitor the substrate metabolite formation.

CYP2C19 [2] = biological target: T2, CYP2C19 (Homo sapiens, UniProt P33261); settings: microsomes
Method: as §1, §2

CYP2C8 = biological target: T3, CYP2C8 (Homo sapiens, UniProt P10632); settings: microsomes
T3 sequence (P10632 1-490): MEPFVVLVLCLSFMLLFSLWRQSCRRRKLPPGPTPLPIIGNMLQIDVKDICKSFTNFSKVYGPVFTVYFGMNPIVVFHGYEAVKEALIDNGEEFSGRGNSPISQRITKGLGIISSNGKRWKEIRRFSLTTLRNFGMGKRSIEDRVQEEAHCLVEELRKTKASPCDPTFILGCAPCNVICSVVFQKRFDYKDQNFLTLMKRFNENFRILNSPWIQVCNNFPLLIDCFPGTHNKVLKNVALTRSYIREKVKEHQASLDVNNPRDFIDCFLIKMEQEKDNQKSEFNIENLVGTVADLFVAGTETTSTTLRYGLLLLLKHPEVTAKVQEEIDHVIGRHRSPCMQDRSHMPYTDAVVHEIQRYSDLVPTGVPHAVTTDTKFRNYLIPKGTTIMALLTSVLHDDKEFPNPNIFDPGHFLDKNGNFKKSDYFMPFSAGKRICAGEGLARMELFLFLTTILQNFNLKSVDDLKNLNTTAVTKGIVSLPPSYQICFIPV
Method: as §1, §2

CYP2C9 = CYP2C9 (Homo sapiens, UniProt P11712); settings: microsomes
Method: as §1, §2

CYP2D6 = CYP2D6 (Homo sapiens, UniProt P10635); settings: microsomes
Method: as §1, §2

CYP3A4/5 = experiment: in vitro CYP450 metabolism inhibition assay in human liver microsomes, CYP3A (midazolam or nifedipine)
Method: as §1, §2

CYP1A2 [3] = biological target: T1, CYP1A2; experiment: clinical DDI prediction, static (IVIVE) and dynamic (PBPK) models, CYP1A2
Description: (§3) The Ki input values were estimated from the ratio IC50/2. Since the IC50 experiments were designed considering the substrate concentration equal to Km, the simplification of Ki as IC50/2 was considered for a competitive inhibition reaction.
(§4) The following Equation (4) was considered for the potential DDI evaluation:(4) AUCR=AUCwith inhibitor/AUCwithout inhibitor where AUCR is the area under the curve ratio, AUCwith inhibitor is AUC in the presence of the inhibitor, and AUCwithout inhibitor is AUC in the absence of the inhibitor.

CYP2C19 [4] = biological target: T2, CYP2C19; experiment: clinical DDI prediction, static (IVIVE) and dynamic (PBPK) models, CYP2C19
Description: as §3, §4

[5] = design: method as in Antunes et al. [14]; settings: ref Antunes et al. [14], cited from earlier work
[6] = dogs, observed, ref Palo et al. [7], cited from earlier work
pityriasis versicolor = settings: ref [5]; cited from earlier work

T2 sequence (P33261 whole entry): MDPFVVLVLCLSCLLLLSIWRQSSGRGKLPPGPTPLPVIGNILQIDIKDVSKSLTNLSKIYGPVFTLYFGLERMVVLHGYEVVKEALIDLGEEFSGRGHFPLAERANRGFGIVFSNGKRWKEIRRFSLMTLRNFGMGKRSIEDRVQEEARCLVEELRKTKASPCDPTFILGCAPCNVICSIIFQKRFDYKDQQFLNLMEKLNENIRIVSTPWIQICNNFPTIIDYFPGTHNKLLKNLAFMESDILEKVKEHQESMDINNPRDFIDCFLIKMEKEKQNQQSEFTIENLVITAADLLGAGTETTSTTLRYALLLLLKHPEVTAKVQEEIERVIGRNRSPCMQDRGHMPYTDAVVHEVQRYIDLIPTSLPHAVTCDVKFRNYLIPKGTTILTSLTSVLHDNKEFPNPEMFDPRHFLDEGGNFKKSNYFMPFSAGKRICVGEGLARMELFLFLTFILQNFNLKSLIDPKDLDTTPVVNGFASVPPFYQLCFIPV
Sequence of CYP2C9 (P11712 whole entry): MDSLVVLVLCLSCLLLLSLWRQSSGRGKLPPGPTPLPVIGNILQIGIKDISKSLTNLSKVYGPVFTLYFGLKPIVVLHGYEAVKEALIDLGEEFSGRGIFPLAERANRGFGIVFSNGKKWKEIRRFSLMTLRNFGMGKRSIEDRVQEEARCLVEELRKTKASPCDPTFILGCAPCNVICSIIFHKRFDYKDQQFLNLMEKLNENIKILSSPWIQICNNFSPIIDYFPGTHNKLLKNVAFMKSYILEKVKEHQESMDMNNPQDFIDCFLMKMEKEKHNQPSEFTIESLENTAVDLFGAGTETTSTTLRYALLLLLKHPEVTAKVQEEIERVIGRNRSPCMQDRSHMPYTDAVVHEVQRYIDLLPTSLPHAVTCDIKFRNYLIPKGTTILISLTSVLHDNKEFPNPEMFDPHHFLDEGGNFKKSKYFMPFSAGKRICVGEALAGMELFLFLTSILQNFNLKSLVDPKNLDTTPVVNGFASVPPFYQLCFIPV
Sequence of CYP2D6 (P10635 whole entry): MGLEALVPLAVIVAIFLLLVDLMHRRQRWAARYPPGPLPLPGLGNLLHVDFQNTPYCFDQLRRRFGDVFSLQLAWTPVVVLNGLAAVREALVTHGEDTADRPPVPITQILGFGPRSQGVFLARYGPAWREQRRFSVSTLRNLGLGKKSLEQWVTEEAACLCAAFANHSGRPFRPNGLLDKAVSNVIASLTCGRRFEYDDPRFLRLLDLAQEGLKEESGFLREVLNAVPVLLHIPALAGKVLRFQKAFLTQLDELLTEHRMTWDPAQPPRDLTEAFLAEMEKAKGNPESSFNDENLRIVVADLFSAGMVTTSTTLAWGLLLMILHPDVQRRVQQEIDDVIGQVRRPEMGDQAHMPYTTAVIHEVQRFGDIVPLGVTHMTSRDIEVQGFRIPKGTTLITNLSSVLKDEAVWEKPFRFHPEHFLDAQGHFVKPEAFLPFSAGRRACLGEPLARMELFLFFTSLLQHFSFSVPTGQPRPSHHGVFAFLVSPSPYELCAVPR

SMILES: FC(F)(F)c1ccc(COC(Cn2ccnc2)c2ccc(Cl)cc2Cl)cc1 (centres unmarked) [dapaconazole, Dapaconazole]
- IC50 (CYP1A2 [1]): 3680 nM
- Ki (CYP1A2 [1]): 1840 nM
- Ki (CYP2C19 [2]): 30 nM
- in vitro reversible inhibition class from IC50 (CYP2C8): slightly inhibits
- Ki (CYP2C9): 110 nM
- Ki (CYP2D6): 430 nM
- IC50 (CYP3A4/5; HLM, 3A4, range over midazolam and nifedipine substrates): 8 to 30 nM
- IC50 (CYP3A4/5; HLM, midazolam as substrate, figure in parentheses not defined): 7.69 nM
- Ki (CYP3A4/5; Ki = IC50/2, substrate midazolam): 4 nM
- IC50 (CYP3A4/5; microsomes): 30.3 nM
- DDI potential from Ki and R1 values (CYP1A2 [3]; CYP1A2): moderate potential
- R1 (CYP1A2 [3]; reversible inhibition, R1=1+(Imax,u/Ki,u), substrate phenacetin): 1.20
- DDI potential from Ki and R1 values (CYP2C19 [4]): high potential
- R1 (CYP2C19 [4]; reversible inhibition, substrate S-mephenytoin): 15.14
- fu,inc ([5]; dog liver microsome incubation): 0.97
- CL int. mic. ([5]; dog liver microsomes): 257.97 µL/min/mg and 258 µL/min/mg
- AUC0-t ([6]; intravenous 1 mg/kg): 255.0 ng·h/mL
- CL ([6]; intravenous 1 mg/kg): 700.0 mL/min
- Cmax ([6]; intravenous 1 mg/kg): 373.2 ng/mL
- t1/2 Terminal ([6]; intravenous 1 mg/kg): 2.1 h
- AUC0-t ([6]; intravenous 2 mg/kg): 779.9 ng·h/mL
- CL ([6]; intravenous 2 mg/kg): 591.7 mL/min
- Cmax ([6]; intravenous 2 mg/kg): 1444.7 ng/mL
- t1/2 Terminal ([6]; intravenous 2 mg/kg): 2.5 h
- AUC0-t ([6]; intravenous 20 mg/kg): 4780.1 ng·h/mL
- CL ([6]; intravenous 20 mg/kg): 700.0 mL/min
- Cmax ([6]; intravenous 20 mg/kg): 4708.3 ng/mL
- t1/2 Terminal ([6]; intravenous 20 mg/kg): 2.3 h
- efficacy compared with ketoconazole (pityriasis versicolor): noninferior efficacy

Reference: paper PMC9861162 (Pharmaceuticals, 2022)
